Experimental data published in patent US12220399B2, “Pharmaceutical compositions comprising one or more pyrone compounds, and their use for treating inflammatory and neurodegenerative diseases” (NeuroTheryX Canada LTD, priority 2015, dated 2025).

What was measured:
[1] = tested on: myelin basic protein (MBP); experiment: Induction of myelin basic protein (MBP) production, anti-MBP slot blot of MO3-13 whole cell extracts; assay type: cell-based, human; conditions: FIG. 3
Experimental: Dilutions (0.1 mg/mL) of MO3-13 whole cell extracts were prepared and the proteins (5 μg) from the dilutions were blotted onto nitrocellulose membrane using a slot blotter. The non-protein sites on the blot were blocked with 2% ECL block in PBS-Tween20. Primary anti-Bov MBP was diluted in block solution at 300×. The primary antibody was incubated overnight at 4° C. with gentle shaking. The following day the blot was developed using enhanced ECL (GE Healthcare) method. Image of bound antibody were captured using Image Lab software driving a Bio-Rad ChemiDoc XRS+ image capture system.

MO3-13 cells [2] = experiment: Protection of MO3-13 oligodendrocytes from Cpz toxicity; assay type: cell-based, human; conditions: compound at 5 μM, Cpz at 50 μM, 24 hrs, visual assessment, FIG. 2
Experimental: The protective effects of compounds […] on MO3-13 cells from Cpz toxicity were then determined. […] Cpz at a final concentration of 50 μM was solubilized in 100% ethanol was added to selected dishes with compound A1 or A2 at 5 μM in DMSO, or DMSO alone as a control.

MO3-13 cells [3] = conditions: differentiated (serum deprived 48 hrs) MO3-13 cells, increasing amounts of Cpz, 24 hrs, visual assessment by phase contrast, FIG. 1
Experimental: MO3-13 cells were plated onto 10 cm cell culture dishes and grown in DMEM containing 5% FBS. Cells were grown to 75% confluence, after which serum containing DMEM medium was replaced with FBS free DMEM. Cells were grown for 48 hrs under serum deprived conditions.

[4] = MO3-13 cells treated with Cpz (50 μM) plus compound (5 μM)
[5] = MO3-13 cells treated with compound alone (5 μM)

SMILES	MBP bound by anti-MBP [1, 4]	MBP bound by anti-MBP [1, 5]	protection of human oligodendrocytes (MO3-13) against the toxicity of Cpz (MO3-13 cells [2])	anti-MBP antibody binding as compared with non-treated (DMSO) cells ([1]; MO3-13 cells treated with Cpz (50 μM))	Cpz toxicity to MO3-13 cells (MO3-13 cells [3])
O=c1cc(-c2ccccc2)cc(-c2ccccc2)o1 [A3, 4,6-diphenyl-2H-pyran-2-one]	significantly higher	significantly higher	protection	–	–
O=C(NN=C1CCCCC1)C(=O)NN=C1CCCCC1 [Cpz, cuprizone, reference compound]	–	–	–	reduced	toxic
O=c1cc(-c2ccccc2)cc(C2CCCCC2)o1 [compound A2, 6-cyclohexyl-4-phenyl-2H-pyran-2-one]	significantly higher	significantly higher	protection	–	–
